Results taken from patent US8269008B2, “Oxazolopyridine and isoxazolopyridine derivatives for use in the treatment of HIF-mediated conditions” (FibroGen, Inc., priority 2007, dated 2012).

Biological target: T1, HIF-PH2 (EGLN1) (Homo sapiens, UniProt Q9GZT9)
T1 construct: made in house; host or cells: insect Hi5 cells
Test: HIF-PH assay (14CO2 capture, peptide-dependent turnover)
Type: biochemical
Conditions: for inhibition at 200 µM: Concentration 200.00 μM; for inhibition at 22.22 µM: Concentration 22.22 μM
Excerpt: Ketoglutaric acid α-[1-^14C]-sodium salt, alpha-ketoglutaric acid sodium salt, and HPLC purified peptide may be obtained from commercial sources, e.g., Perkin-Elmer (Wellesley Mass.), Sigma-Aldrich, and SynPep Corp. (Dublin Calif.), respectively. Peptides for use in the assay may be fragments of HIFα as described above or as disclosed in International Publication WO 2005/118836, incorporated by reference herein. For example, a HLF peptide for use in the HIF-PH assay is [methoxycoumarin]-DLDLEALAPYIPADDDFQL-amide. HIF-PH, e.g., HIF-PH2 (EGLN1), can be expressed in, e.g., insect Hi5 cells, and partially purified, e.g., through a SP ion exchange chromatography column. Enzyme activity is determined by capturing ^14CO2 using an assay described by Kivirikko and Myllyla (1982, Methods Enzymol. 82:245-304). Assay reactions contain 50 mM HEPES (pH 7.4), 100 μM α-ketoglutaric acid sodium salt, 0.30 μCi/mL ketoglutaric acid α-[1-^14C]-sodium salt, 40 μM FeSO4, 1 mM ascorbate, 1541.8 units/mL Catalase, with or without 50 μM peptide substrate and various concentrations of compound of the invention. Reactions are initiated by addition of HIF-PH enzyme.
The peptide-dependent percent turnover is calculated by subtracting percent turnover in the absence of peptide from percent turnover in the presence of substrate peptide. Percent inhibition and IC50 are calculated using peptide-dependent percent turnover at given inhibitor concentrations. Calculation of IC50 values for each inhibitor is conducted using GraFit software (Erithacus Software Ltd., Surrey UK). […]

T1 sequence (Q9GZT9 whole entry, species assumed): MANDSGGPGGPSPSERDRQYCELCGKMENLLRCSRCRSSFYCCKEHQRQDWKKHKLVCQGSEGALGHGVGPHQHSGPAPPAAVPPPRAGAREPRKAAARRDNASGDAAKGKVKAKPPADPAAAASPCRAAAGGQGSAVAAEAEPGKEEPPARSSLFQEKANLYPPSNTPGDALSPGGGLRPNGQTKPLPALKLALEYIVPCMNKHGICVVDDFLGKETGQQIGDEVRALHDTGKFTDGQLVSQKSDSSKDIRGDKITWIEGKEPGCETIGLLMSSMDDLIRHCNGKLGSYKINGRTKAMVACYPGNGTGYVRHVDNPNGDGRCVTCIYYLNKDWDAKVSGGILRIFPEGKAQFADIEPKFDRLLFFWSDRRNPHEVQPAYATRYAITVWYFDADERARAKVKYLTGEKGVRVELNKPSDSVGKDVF

inhibition at 200 µM [%]	inhibition at 22.22 µM [%]	Compound
98.6	–	Cc1nc(C(=O)NCC(=O)O)c(O)c2c(-c3ccccc3)noc12 [Example 12, [(4-Hydroxy-7-methyl-3-phenyl-isoxazolo[5,4-c]pyridine-5-carbonyl)-amino]-acetic acid]
100	–	CC(=O)c1nc(C(=O)NCC(=O)O)c(O)c2onc(-c3ccccc3)c12 [Example 61, [(4-Acetyl-7-hydroxy-3-phenyl-isoxazolo[4,5-c]pyridine-6-carbonyl)-amino]-acetic acid]
100	–	O=C(O)CNC(=O)c1ncc2c(C3=CCCCC3)noc2c1O [Example 65, [(3-Cyclohex-1-enyl-7-hydroxy-isoxazolo[4,5-c]pyridine-6-carbonyl)-amino]-acetic acid]
–	98.7	O=C(O)CNC(=O)c1nc(Br)c2onc(-c3ccc(F)cc3)c2c1O [Example 22, {[7-Bromo-3-(4-fluoro-phenyl)-4-hydroxy-isoxazolo[5,4-c]pyridine-5-carbonyl]-amino}-acetic acid]
–	99.6	O=C(O)CNC(=O)c1nc(-c2ccccn2)c2onc(-c3ccccc3)c2c1O [Example 37, [(4-Hydroxy-3-phenyl-7-pyridin-2-yl-isoxazolo[5,4-c]pyridine-5-carbonyl)-amino]-acetic acid]
98.9	–	COc1ccc(-c2noc3c(O)c(C(=O)NCC(=O)O)nc(C)c23)cc1 [Example 56, {[7-Hydroxy-3-(4-methoxy-phenyl)-4-methyl-isoxazolo[4,5-c]pyridine-6-carbonyl]-amino}-acetic acid]
–	99.4	O=C(O)CNC(=O)c1ncc2onc(-c3ccc(-c4ccccc4)cc3)c2c1O [Example 29, [(3-Biphenyl-4-yl-4-hydroxy-isoxazolo[5,4-c]pyridine-5-carbonyl)-amino]-acetic acid]
100	–	O=C(O)CNC(=O)c1ncc2c(-c3ccncc3)noc2c1O [Example 48, [(7-Hydroxy-3-pyridin-4-yl-isoxazolo[4,5-c]pyridine-6-carbonyl)-amino]-acetic acid]
100	–	O=C(O)CNC(=O)c1nc(-c2cn(Cc3ccccc3)nn2)c2c(-c3ccccc3)noc2c1O [Example 63, {[4-(1-Benzyl-1H-[1,2,3]-triazol-4-yl)-7-hydroxy-3-phenyl-isoxazolo[4,5-c]pyridine-6-carbonyl]-amino}-acetic acid]
–	96.7	C#Cc1nc(C(=O)NCC(=O)O)c(O)c2c(-c3ccc(Cl)cc3)noc12 [Example 28, {[3-(4-Chloro-phenyl)-7-ethynyl-4-hydroxy-isoxazolo[5,4-c]pyridine-5-carbonyl]-amino}-acetic acid]
–	94.6	Cc1nc(C(=O)NCC(=O)O)c(O)c2c(C)noc12 [Example 72, [(4-Hydroxy-3,7-dimethyl-isoxazolo[5,4-c]pyridine-5-carbonyl)-amino]-acetic acid]
97.3	–	O=C(O)CNC(=O)c1nc(-c2ccc(F)cc2)c2nc(-c3ccccc3)oc2c1O [Example 8, {[4-(4-Fluoro-phenyl)-7-hydroxy-2-phenyl-oxazolo[4,5-c]pyridine-6-carbonyl]-amino}-acetic acid]
–	97.8	O=C(O)CNC(=O)c1ncc2onc(-c3ccc(C(F)(F)F)cc3)c2c1O [Example 34, {[4-Hydroxy-3-(4-trifluoromethyl-phenyl)-isoxazolo[5,4-c]pyridine-5-carbonyl]-amino}-acetic acid]
–	98.8	CC(C)(C)c1ccc(-c2noc3cnc(C(=O)NCC(=O)O)c(O)c23)cc1 [Example 40, {[3-(4-tert-Butyl-phenyl)-4-hydroxy-isoxazolo[5,4-c]pyridine-5-carbonyl]-amino}-acetic acid]
96.3	–	O=C(O)CNC(=O)c1ncc2c(-c3ccc(Br)o3)noc2c1O [Example 49, {[3-(5-Bromo-furan-2-yl)-7-hydroxy-isoxazolo[4,5-c]pyridine-6-carbonyl]-amino}-acetic acid]
99.4	–	COc1ccc(-c2noc3c(O)c(C(=O)NCC(=O)O)nc(C#N)c23)cc1 [Example 53, {[4-Cyano-7-hydroxy-3-(4-methoxy-phenyl)-isoxazolo[4,5-c]pyridine-6-carbonyl]-amino}-acetic acid]
100	–	COc1ccc(-c2noc3c(O)c(C(=O)NCC(=O)O)nc(Cn4cccn4)c23)cc1 [Example 60, {[7-Hydroxy-3-(4-methoxy-phenyl)-4-pyrazol-1-ylmethyl-isoxazolo[4,5-c]pyridine-6-carbonyl]-amino}-acetic acid]
–	88.2	O=C(O)CNC(=O)c1ncc2onc(-c3c(F)cccc3Cl)c2c1O [Example 18, {[3-(2-Chloro-6-fluoro-phenyl)-4-hydroxy-isoxazolo[5,4-c]pyridine-5-carbonyl]-amino}-acetic acid]

inhibition at 200 µM [%]	inhibition at 22.22 µM [%]	Compound
99.3	–	O=C(O)CNC(=O)c1nc(C2CC2)c2c(-c3cccs3)noc2c1O [Example 59, [(4-Cyclopropyl-7-hydroxy-3-thiophen-2-yl-isoxazolo[4,5-c]pyridine-6-carbonyl)-amino]-acetic acid]
–	99.6	O=C(O)CNC(=O)c1nc(-c2cccnc2)c2onc(-c3ccccc3)c2c1O [Example 33, [(4-Hydroxy-3-phenyl-7-pyridin-3-yl-isoxazolo[5,4-c]pyridine-5-carbonyl)-amino]-acetic acid]
100	–	O=C(O)CNC(=O)c1ncc2nc(-c3ccc(F)cc3)oc2c1O [Example 2, {[2-(4-Fluoro-phenyl)-7-hydroxy-oxazolo[4,5-c]pyridine-6-carbonyl]-amino}-acetic acid]
98.8	–	N#Cc1nc(C(=O)NCC(=O)O)c(O)c2onc(-c3cccs3)c12 [Example 51, [(4-Cyano-7-hydroxy-3-thiophen-2-yl-isoxazolo[4,5-c]pyridine-6-carbonyl)-amino]-acetic acid]
–	98.5	O=C(O)CNC(=O)c1nc(-c2ccncc2)c2onc(-c3ccccc3)c2c1O [Example 36, [(4-Hydroxy-3-phenyl-7-pyridin-4-yl-isoxazolo[5,4-c]pyridine-5-carbonyl)-amino]-acetic acid]
–	98.5	N#Cc1nc(C(=O)NCC(=O)O)c(O)c2c(-c3ccccc3)noc12 [Example 20, [(7-Cyano-4-hydroxy-3-phenyl-isoxazolo[5,4-c]pyridine-5-carbonyl)-amino]-acetic acid]
99.1	–	CCc1noc2c(O)c(C(=O)NCC(=O)O)ncc12 [Example 66, [(3-Ethyl-7-hydroxy-isoxazolo[4,5-c]pyridine-6-carbonyl)-amino]-acetic acid]
61	–	C[C@@H](NC(=O)c1ncc2onc(-c3ccccc3)c2c1O)C(=O)O [Example 31, 2-[(4-Hydroxy-3-phenyl-isoxazolo[5,4-c]pyridine-5-carbonyl)-amino]-(R)-propionic acid]
–	97.9	COc1ccc(-c2noc3cnc(C(=O)NCC(=O)O)c(O)c23)cc1 [Example 16, {[4-Hydroxy-3-(4-methoxy-phenyl)-isoxazolo[5,4-c]pyridine-5-carbonyl]-amino}-acetic acid]
–	98.4	N#Cc1cccc(-c2noc3cnc(C(=O)NCC(=O)O)c(O)c23)c1 [Example 67, {[3-(3-Cyano-phenyl)-4-hydroxy-isoxazolo[5,4-c]pyridine-5-carbonyl]-amino}-acetic acid]
–	97.4	Cc1nc(C(=O)NCC(=O)O)c(O)c2c(-c3ccc(OC(F)(F)F)cc3)noc12 [Example 73, {[4-Hydroxy-7-methyl-3-(4-trifluoromethoxy-phenyl)-isoxazolo[5,4-c]pyridine-5-carbonyl]-amino}-acetic acid]
100	–	C#Cc1nc(C(=O)NCC(=O)O)c(O)c2onc(-c3ccccc3)c12 [Example 58, [(4-Ethynyl-7-hydroxy-3-phenyl-isoxazolo[4,5-c]pyridine-6-carbonyl)-amino]-acetic acid]
98.7	–	C[C@H](NC(=O)c1ncc2c(-c3ccccc3)noc2c1O)C(=O)O [Example 43, (S)-2-[(7-Hydroxy-3-phenyl-isoxazolo[4,5-c]pyridine-6-carbonyl)amino]-propionic acid]
98.4	–	O=C(O)CNC(=O)c1ncc2c(-c3ccccc3)noc2c1O [Example 42, [(7-Hydroxy-3-phenyl-isoxazolo[4,5-c]pyridine-6-carbonyl)-amino]-acetic acid]
–	95.7	O=C(O)CNC(=O)c1ncc2onc(-c3ccccc3Cl)c2c1O [Example 15, {[3-(2-Chloro-phenyl)-4-hydroxy-isoxazolo[5,4-c]pyridine-5-carbonyl]-amino}-acetic acid]
99	–	COc1cccc(-c2nc(C(=O)NCC(=O)O)c(O)c3oc(-c4ccccc4)nc23)c1 [Example 10, {[7-Hydroxy-4-(3-methoxy-phenyl)-2-phenyl-oxazolo[4,5-c]pyridine-6-carbonyl]-amino}-acetic acid]
48.9	–	Cc1nc(C(=O)NCC(=O)O)c(O)c2oc(-c3ccccc3)nc12 [Example 3, [(7-Hydroxy-4-methyl-2-phenyl-oxazolo[4,5-c]pyridine-6-carbonyl)-amino]-acetic acid]
